Data: US20250313535A1, “ALPHA 4 BETA 7 INTEGRIN MODULATORS AND USES THEREOF” (DICE MOLECULES SV, INC., priority 2022, published 2025)
pIC50: −log10 of the molar value. Where two headings read alike, the source gives them in different places.

Key:
α4β7 integrin = α4β7 integrin (Homo sapiens (Human), UniProt P13612+P26010); test: Integrin Adhesion Assay: Protocol 4 (MAdCAM-coated plate, RPMI-8866 cells with stable LOF mutation of the ITGB1 gene); assay type: cell-based
Outline: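 RPMI-8866 cells with CRISPR/Cas9 knockout of ITGB1 (2×10^6/mL) were added to MAdCAM-coated wells with compound (1% DMSO) in HEPES/NaCl buffer with 1 mM MnCl2, 0.1 mM CaCl2 and 1% BSA, then incubated 1 h at 37 °C. After four washes, adherent cells were quantified by CellTiter-Glo luminescence. Percent inhibition versus DMSO and control compound was fitted to 4-parameter curves.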

α4β1 integrin = α4β1 integrin (Homo sapiens (Human), UniProt P05556+P13612); test: Integrin Adhesion Assay: Protocol 5 (VCAM-coated plate, RPMI-8866 cells with stable LOF mutation of the ITGB7 gene); assay type: cell-based
Outline: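 RPMI-8866 B cells with CRISPR/Cas9 ITGB7 knockout (clonal, verified by flow cytometry) adhered to VCAM-coated wells for 1 h at 37° C in HEPES/NaCl buffer with 1 mM MnCl2, 0.1 mM CaCl2, 1% BSA, 1% DMSO. Bound cells quantified by CellTiter-Glo luminescence after washing; % inhibition versus DMSO and control, 4-parameter fit.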

[1] = Protocol 4, RPMI-8866 cells with LOF mutation of ITGB1, MAdCAM, read-out: Mean IC50 α4β7 KO
[2] = Protocol 5, RPMI-8866 cells with LOF mutation of ITGB7, VCAM, read-out: Mean IC50 α4β1 KO
[3] = RPMI-8866 cells with stable LOF mutation of the ITGB1 gene, read-out: Mean IC50 α4β7 KO^a
[4] = RPMI-8866 cells with stable LOF mutation of the ITGB7 gene, read-out: Mean IC50 α4β1 KO^b

Sequence of α4β7 integrin (P13612 34-1032): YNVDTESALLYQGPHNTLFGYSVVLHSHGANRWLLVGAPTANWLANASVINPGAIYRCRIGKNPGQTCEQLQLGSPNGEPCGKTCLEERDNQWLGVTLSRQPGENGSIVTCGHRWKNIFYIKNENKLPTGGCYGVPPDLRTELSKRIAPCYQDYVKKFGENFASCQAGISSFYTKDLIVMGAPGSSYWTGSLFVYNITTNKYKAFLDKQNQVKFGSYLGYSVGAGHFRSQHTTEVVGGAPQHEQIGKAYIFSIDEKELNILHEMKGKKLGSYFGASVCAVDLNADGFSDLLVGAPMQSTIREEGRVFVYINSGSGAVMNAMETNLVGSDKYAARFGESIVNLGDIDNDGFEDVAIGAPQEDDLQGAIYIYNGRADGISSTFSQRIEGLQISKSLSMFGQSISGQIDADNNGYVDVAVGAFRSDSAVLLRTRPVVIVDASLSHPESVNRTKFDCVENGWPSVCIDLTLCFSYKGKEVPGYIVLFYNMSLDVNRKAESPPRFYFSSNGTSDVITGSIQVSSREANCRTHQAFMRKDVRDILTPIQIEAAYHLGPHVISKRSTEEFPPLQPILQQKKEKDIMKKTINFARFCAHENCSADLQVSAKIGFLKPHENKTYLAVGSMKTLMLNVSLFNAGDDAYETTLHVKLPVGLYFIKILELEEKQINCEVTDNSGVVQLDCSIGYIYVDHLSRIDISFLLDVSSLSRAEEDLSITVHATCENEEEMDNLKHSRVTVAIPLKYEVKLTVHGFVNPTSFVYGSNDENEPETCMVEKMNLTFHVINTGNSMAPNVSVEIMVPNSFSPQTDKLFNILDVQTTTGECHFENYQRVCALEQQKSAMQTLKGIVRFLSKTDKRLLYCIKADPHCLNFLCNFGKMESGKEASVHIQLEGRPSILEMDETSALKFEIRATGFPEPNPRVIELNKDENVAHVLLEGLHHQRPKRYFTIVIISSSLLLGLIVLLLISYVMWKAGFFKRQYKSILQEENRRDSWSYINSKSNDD
Sequence of α4β7 integrin (P26010 20-798): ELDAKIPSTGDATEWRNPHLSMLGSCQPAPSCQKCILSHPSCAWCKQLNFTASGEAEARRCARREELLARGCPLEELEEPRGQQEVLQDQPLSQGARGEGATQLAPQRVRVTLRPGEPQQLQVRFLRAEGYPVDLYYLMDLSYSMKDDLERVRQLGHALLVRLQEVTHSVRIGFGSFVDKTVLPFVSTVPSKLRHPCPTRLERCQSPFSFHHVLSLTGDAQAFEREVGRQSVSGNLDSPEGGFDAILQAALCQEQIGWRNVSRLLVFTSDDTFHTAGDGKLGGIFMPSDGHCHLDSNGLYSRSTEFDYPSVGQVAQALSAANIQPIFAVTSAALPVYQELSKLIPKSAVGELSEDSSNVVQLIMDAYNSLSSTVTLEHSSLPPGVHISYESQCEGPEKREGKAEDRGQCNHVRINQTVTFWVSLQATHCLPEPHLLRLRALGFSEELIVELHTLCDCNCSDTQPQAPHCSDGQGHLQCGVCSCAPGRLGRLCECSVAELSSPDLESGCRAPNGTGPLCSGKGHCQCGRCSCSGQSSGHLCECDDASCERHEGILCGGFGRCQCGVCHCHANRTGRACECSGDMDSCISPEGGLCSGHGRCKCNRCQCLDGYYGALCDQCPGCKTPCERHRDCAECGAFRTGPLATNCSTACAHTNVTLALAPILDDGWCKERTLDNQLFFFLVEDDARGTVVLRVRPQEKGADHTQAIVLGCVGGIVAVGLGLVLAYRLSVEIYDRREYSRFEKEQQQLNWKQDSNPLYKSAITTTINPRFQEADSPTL
Sequence of α4β1 integrin (P13612 34-1032): as the sequence (P13612 34-1032) above
Sequence of α4β1 integrin (P05556 21-798): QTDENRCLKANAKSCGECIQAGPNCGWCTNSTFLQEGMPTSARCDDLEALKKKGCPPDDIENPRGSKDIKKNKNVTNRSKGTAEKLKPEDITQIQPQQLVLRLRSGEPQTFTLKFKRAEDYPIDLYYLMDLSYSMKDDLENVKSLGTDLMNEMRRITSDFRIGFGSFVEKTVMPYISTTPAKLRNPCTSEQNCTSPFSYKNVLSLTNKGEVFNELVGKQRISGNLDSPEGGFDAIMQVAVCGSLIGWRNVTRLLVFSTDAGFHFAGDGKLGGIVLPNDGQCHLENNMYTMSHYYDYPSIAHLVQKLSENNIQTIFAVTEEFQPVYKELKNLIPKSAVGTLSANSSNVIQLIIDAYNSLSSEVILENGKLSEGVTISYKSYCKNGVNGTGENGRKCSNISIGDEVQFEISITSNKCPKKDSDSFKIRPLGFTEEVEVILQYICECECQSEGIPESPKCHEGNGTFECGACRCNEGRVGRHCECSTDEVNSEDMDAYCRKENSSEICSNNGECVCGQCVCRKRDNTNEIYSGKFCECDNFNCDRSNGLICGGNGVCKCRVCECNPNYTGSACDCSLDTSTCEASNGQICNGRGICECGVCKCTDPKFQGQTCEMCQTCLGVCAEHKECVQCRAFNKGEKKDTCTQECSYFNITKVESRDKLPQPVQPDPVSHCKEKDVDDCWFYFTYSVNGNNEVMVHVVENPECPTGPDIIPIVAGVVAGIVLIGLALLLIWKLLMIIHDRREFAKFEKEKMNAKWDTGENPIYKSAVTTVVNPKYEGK

Row | Compound | pIC50 (α4β7 integrin; [1]) | pIC50 (α4β1 integrin; [2]) | pIC50 (α4β7 integrin; [3]) | pIC50 (α4β1 integrin; [4])
1 | O=C(O)[C@H](Cc1cccc2c(-c3nc(CN4CCCCC4)cc4ccccc34)cccc12)NC(=O)C1(C(F)(F)F)CCN(CC(F)(F)F)CC1 [Compound 988] | 7.00 to 8.00 | < 6.00 |  | 
2 | COc1c(CN2CCCCC2)cc2cccnc2c1-c1cccc2c(C[C@H](NC(=O)C3(C(F)(F)F)CCN(CC(F)(F)F)CC3)C(=O)O)cccc12 [Compound 792] | 7.00 to 8.00 | < 6.00 |  | 
3 | COc1ccc(CN2CCC(F)(F)CC2)cc1-c1cccc2c(C[C@H](NC(=O)C3(C(F)(F)F)CCN(CC(F)F)CC3)C(=O)O)cccc12 [Compound 927] | > 8.00 | 6.00 to 7.00 |  | 
4 | COc1ccc(CCN2CCC(F)(F)CC2)c(C(F)(F)F)c1-c1cccc2c(C[C@H](NC(=O)C3(C(F)(F)F)CCN(CC(F)(F)F)CC3)C(=O)O)cccc12 [Compound 850] | 7.00 to 8.00 | 6.00 to 7.00 |  | 
5 | COc1cc(CCN2CCCCC2)ccc1-c1cccc2c(C[C@H](NC(=O)C3(C(F)(F)F)CCN(CC(F)(F)F)CC3)C(=O)O)cccc12 [Compound 963] | > 8.00 | 6.00 to 7.00 |  | 
6 | Cc1cc(C2CCN(C)CC2)cnc1-c1cccc2c(C[C@H](NC(=O)C3(C(F)(F)F)CCN(CC(F)(F)F)CC3)C(=O)O)cccc12 [Compound 759] | > 8.00 | < 6.00 |  | 
7 | COc1ccc(CN2CCC(C)(C)CC2)c(OC)c1-c1cccc2c(C[C@H](NC(=O)C3(C(F)(F)F)CCN(CC(F)(F)F)CC3)C(=O)O)cccc12 [Compound 789] | > 8.00 | 6.00 to 7.00 |  | 
8 | Cn1c(=O)c(-c2cccc3c(C[C@H](NC(=O)c4c(F)cccc4F)C(=O)O)cccc23)c(C(F)(F)F)c2cc(C3CCCO3)ccc21 (stereo partly shown) [Compound 1046] | 6.00 to 7.00 | < 6.00 |  | 
9 | COc1ccc(CN2CCCCC2)c(C(F)(F)F)c1-c1cccc2c(C[C@H](NC(=O)C3(C(F)(F)F)CCN(CC(F)(F)F)CC3)C(=O)O)cccc12 [Compound 564] |  |  | > 8.00 | 6.00 to 7.00
10 | O=C(O)[C@H](Cc1cccc2c(-c3ncc(CN4CCOC(C(F)(F)F)C4)c4ccccc34)cccc12)NC(=O)C1(C(F)(F)F)CCN(CC(F)(F)F)CC1 (stereo partly shown) [Compound 856] | 7.00 to 8.00 | < 6.00 |  | 
11 | COc1ccc(CCN(C)C)c(OC)c1-c1cccc2c(C[C@H](NC(=O)C3(C(F)(F)F)CCN(CC(F)(F)F)CC3)C(=O)O)cccc12 [Compound 468] |  |  | > 8.00 | 6.00 to 7.00
12 | COc1cccc(CN2CCCCC2)c1-c1cccc2c(C[C@H](NC(=O)c3c(F)cccc3C(C)C)C(=O)O)cccc12 [Compound 540] |  |  | > 8.00 | 6.00 to 7.00
13 | COc1ccc(CN(C)C)c(OC)c1-c1cccc2c(C[C@H](NC(=O)c3c(C)cc(C4CC(F)(F)C4)cc3F)C(=O)O)cccc12 [Compound 602] |  |  | > 8.00 | < 6.00
14 | COc1cc(CCN2CCCCC2)ccc1-c1cccc2c(C[C@H](NC(=O)c3c(C)cccc3F)C(=O)O)cccc12 [Compound 740] | > 8.00 | < 6.00 |  | 
15 | O=C(O)[C@H](Cc1cccc2c(-c3ccc(CN4CCC(F)CC4)c4ccncc34)cccc12)NC(=O)C1(C(F)(F)F)CCN(CC(F)(F)F)CC1 [Compound 987] | > 8.00 | < 6.00 |  | 
16 | COc1ccc(CN2CCC(F)CC2)cc1-c1cccc2c(C[C@H](NC(=O)C3(C(F)(F)F)CCN(CC(F)F)CC3)C(=O)O)cccc12 [Compound 940] | > 8.00 | 6.00 to 7.00 |  | 
17 | O=C(O)[C@H](Cc1cccc2c(-c3ncc(CN4CCC[C@@H](F)C4)c4ccccc34)cccc12)NC(=O)C1(C(F)(F)F)CCN(CC(F)F)CC1 [Compound 860] | > 8.00 | < 6.00 |  | 
18 | COc1cnc(CN2CCC(C)C(F)(F)CC2)cc1-c1cccc2c(C[C@H](NC(=O)C3(C(F)(F)F)CCN(CC(F)(F)F)CC3)C(=O)O)cccc12 (stereo partly shown) [Compound 843] | > 8.00 | < 6.00 |  | 
19 | CN(C)Cc1cc(-c2cccc3c(C[C@H](NC(=O)c4c(F)cc(N5CCOC[C@@H]5C(F)(F)F)cc4CN4CCCC4)C(=O)O)cccc23)c2cnccc2c1 [Compound 587] |  |  | > 8.00 | < 6.00
20 | Cn1c(=O)c(-c2cccc3c(C[C@H](NC(=O)C4(C)CN(C5CCOC(C(F)(F)F)C5)C4)C(=O)O)cccc23)c(C(F)(F)F)c2ccccc21 (stereo partly shown) [Compound 506] |  |  | 6.00 to 7.00 | < 6.00
21 | CN1CCc2cc(-c3cccc4c(C[C@H](NC(=O)C5(C(F)(F)F)CCN(CC(F)(F)F)CC5)C(=O)O)cccc34)ncc2C1 [Compound 754] | 7.00 to 8.00 | < 6.00 |  | 
22 | COc1ccc(CN2CCCC(F)C2)c(OC)c1-c1cccc2c(C[C@H](NC(=O)c3c(C)cccc3F)C(=O)O)cccc12 (stereo partly shown) [Compound 1012] | > 8.00 | < 6.00 |  | 

Row | Compound | pIC50 (α4β7 integrin; [1]) | pIC50 (α4β1 integrin; [2]) | pIC50 (α4β7 integrin; [3]) | pIC50 (α4β1 integrin; [4])
23 | C[C@@H]1CN(Cc2cnc(-c3cccc4c(C[C@H](NC(=O)C5(C(F)(F)F)CCN(CC(F)(F)F)CC5)C(=O)O)cccc34)c3ccccc23)C[C@H](C)N1C1CC1 [Compound 892] | > 8.00 | 6.00 to 7.00 |  | 
24 | COc1cc2c(c(C(F)(F)F)c1-c1cccc3c(C[C@H](NC(=O)C4(C(F)(F)F)CCN(CC(F)(F)F)CC4)C(=O)O)cccc13)CCN(C)C2 [Compound 726] | > 8.00 | 7.00 to 8.00 |  | 
25 | O=C(O)[C@H](Cc1cccc2c(-c3ncc(CN4CCC[C@H](F)C4)c4ccccc34)cccc12)NC(=O)C1(C(F)(F)F)CCN(CC(F)F)CC1 [Compound 859] | > 8.00 | < 6.00 |  | 
26 | CC1(C)CCCN(Cc2cnc(-c3cccc4c(C[C@H](NC(=O)C5(C(F)(F)F)CCN(CC(F)(F)F)CC5)C(=O)O)cccc34)c3ccccc23)CC1 [Compound 876] | > 8.00 | < 6.00 |  | 
27 | COc1ccc(CN2CCC(c3ccccc3)CC2)c(OC)c1-c1cccc2c(C[C@H](NC(=O)c3c(C)cccc3F)C(=O)O)cccc12 [Compound 570] |  |  | > 8.00 | 6.00 to 7.00
28 | CN(C)Cc1cnc(-c2cccc3c(C[C@H](NC(=O)C4(C(F)(F)F)CCN(CC(F)(F)F)CC4)C(=O)O)cccc23)c2ccccc12 [Compound 921] | > 8.00 | 6.00 to 7.00 |  | 
29 | COc1ccc(CN2CCC(F)(F)CC2)c(OC)c1-c1cccc2c(C[C@H](NC(=O)c3c(C)cccc3F)C(=O)O)cccc12 [Compound 634] |  |  | 7.00 to 8.00 | < 6.00
30 | Cn1c(=O)c(-c2cccc3c(C[C@H](NC(=O)C4(C(F)(F)F)CCN(CC5(F)CCC5)CC4)C(=O)O)cccc23)c(C(F)(F)F)c2ccccc21 [Compound 533] |  |  | 7.00 to 8.00 | < 6.00
31 | Cn1c(=O)c(-c2cccc3c(C[C@H](NC(=O)c4c(F)cccc4F)C(=O)O)cccc23)c(C(F)(F)F)c2cc(CCN3CCCC3)ccc21 [Compound 710] | > 8.00 | 6.00 to 7.00 |  | 
32 | Cc1cccc(F)c1C(=O)N[C@@H](Cc1cccc2c(-c3c(C(F)(F)F)c4cc(CCN5CC(F)C5)ccc4n(C)c3=O)cccc12)C(=O)O [Compound 517] |  |  | > 8.00 | < 6.00
33 | Cn1c(=O)c(-c2cccc3c(C[C@H](NC(=O)C4(C(F)(F)F)CCN(CC(F)(F)F)CC4)C(=O)O)cccc23)c(C(F)(F)F)c2cc(CN3CCC(F)(F)CC3)ccc21 [Compound 835] | 7.00 to 8.00 | 6.00 to 7.00 |  | 
34 | COc1cccc(CCN2CCC(C)(C)CC2)c1-c1cccc2c(C[C@H](NC(=O)C3(C(F)(F)F)CCN(CC(F)(F)F)CC3)C(=O)O)cccc12 [Compound 960] | > 8.00 | < 6.00 |  | 
35 | COc1cc(CN2CCC(C(F)(F)F)CC2)cnc1-c1cccc2c(C[C@H](NC(=O)c3c(C)cccc3F)C(=O)O)cccc12 [Compound 996] | 7.00 to 8.00 | < 6.00 |  | 
36 | CC1(C(=O)N[C@@H](Cc2cccc3c(-c4ncc(CN5CCCCC5)c5ccccc45)cccc23)C(=O)O)CCN(CC(F)F)CC1 [Compound 687] | > 8.00 | < 6.00 |  | 
37 | COc1ccc(CN2CCC[C@H](F)C2)c(OC)c1-c1cccc2c(C[C@H](NC(=O)c3c(C)cccc3F)C(=O)O)cccc12 [Compound 671] |  |  | > 8.00 | 6.00 to 7.00
38 | COc1cccc(CCN2CCC(F)(F)CC2)c1-c1cccc2c(C[C@H](NC(=O)c3c(C)cccc3F)C(=O)O)cccc12 [Compound 1034] | 7.00 to 8.00 | < 6.00 |  | 
39 | COc1ccc(CN2CCC(F)(F)C2)c(OC)c1-c1cccc2c(C[C@H](NC(=O)C3(C(F)(F)F)CCN(CC(F)(F)F)CC3)C(=O)O)cccc12 [Compound 783] | 7.00 to 8.00 | < 6.00 |  | 
40 | O=C(O)[C@H](Cc1cccc2c(-c3nccc4ccc(CCCN5CCCCC5)cc34)cccc12)NC(=O)C1(C(F)(F)F)CCN([C@@H]2COCC2(F)F)CC1 [Compound 483] |  |  | > 8.00 | < 6.00
41 | COc1cc(C(F)(F)F)cc(CN2CCCCC2)c1-c1cccc2c(C[C@H](NC(=O)C3(C(F)(F)F)CCN(CC(F)(F)F)CC3)C(=O)O)cccc12 [Compound 830] | 7.00 to 8.00 | < 6.00 |  | 
42 | Cn1c(=O)c(-c2cccc3c(C[C@H](NC(=O)C4(C(F)(F)F)CCN(CC(C)(F)F)CC4)C(=O)O)cccc23)c(C(F)(F)F)c2ccccc21 [Compound 534] |  |  | 7.00 to 8.00 | 6.00 to 7.00
43 | COc1ccc(CN2CCCCC2)c(OC)c1-c1cccc2c(C[C@H](NC(=O)c3c(F)cccc3C#N)C(=O)O)cccc12 [Compound 646] |  |  | 6.00 to 7.00 | < 6.00
44 | COc1ccc2c(c1-c1cccc3c(C[C@H](NC(=O)c4c(C)cccc4F)C(=O)O)cccc13)CCN(CC(F)(F)F)C2 [Compound 997] | 7.00 to 8.00 | < 6.00 |  | 
